Results taken from patent US20060069132A1, “Azolecarboxamide herbicides” (priority 2004, published 2006).

Key:
velvetleaf [1] = experiment: Test C pre-/postemergence herbicide test; type: in vivo, Abutilon theophrasti; conditions: for Plant response rating, Velvetleaf: preemergence
Method in brief: (§1)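 Visual injury scores run from 0 (no effect) to 100 (complete control), assessed relative to untreated controls 12 to 14 days after treatment in the greenhouse. Chemicals were formulated in a non-phytotoxic solvent mixture with surfactant and applied to soil after planting or to emerged plants at the 1- to 4-leaf stage.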

soybean = experiment: Test C pre-/postemergence herbicide test; type: in vivo, Glycine max; conditions: for Plant response rating, Soybean: preemergence
Method in brief: as §1

cocklebur = experiment: Test C pre-/postemergence herbicide test; type: in vivo, Xanthium strumarium; conditions: for Plant response rating, Cocklebur: preemergence
Method in brief: as §1

corn = experiment: Test C pre-/postemergence herbicide test; type: in vivo, Zea mays; conditions: for Plant response rating, Corn: preemergence
Method in brief: as §1

goosegrass = experiment: Test C pre-/postemergence herbicide test; type: in vivo, Eleusine indica; conditions: for Plant response rating, Goosegrass: preemergence
Method in brief: as §1

morningglory = experiment: Test A pre-/postemergence herbicide test; type: in vivo, Ipomoea spp.
Method in brief: (§2)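 Pre: seeded sandy loam, directed soil spray, compound in non-phytotoxic solvent + surfactant. Post: 1–2-leaf plants (2–10 cm), sprayed to runoff. Greenhouse ~10 d; visual injury vs untreated, 0–100 scale.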

johnsongrass = experiment: Test C pre-/postemergence herbicide test; type: in vivo, Sorghum halepense; conditions: for Plant response rating, Johnsongrass: preemergence
Method in brief: as §1

barnyardgrass = experiment: Test A pre-/postemergence herbicide test; type: in vivo, Echinochloa crus-galli
Method in brief: as §2

velvetleaf [2] = experiment: Test A pre-/postemergence herbicide test; type: in vivo, Abutilon theophrasti
Method in brief: as §2

bermudagrass = experiment: Test C pre-/postemergence herbicide test; type: in vivo, Cynodon dactylon; conditions: for Plant response rating, Bermudagrass: preemergence
Method in brief: as §1

[3] = 125 g ai/ha, scale 0 (no effect) to 100 (complete control), visual, 12 to 14 days
[4] = Preemergence, 500 g ai/ha, scale 0 to 100, 0 no effect, 100 complete control
[5] = 250 g ai/ha, scale 0 to 100 (0 no effect, 100 complete control), visual, 12 to 14 days
[6] = Postemergence, 500 g ai/ha, 0 to 100 scale, 0 no effect, 100 complete control
[7] = Postemergence, 2000 g ai/ha, 0 to 100 scale, 0 no effect, 100 complete control
[8] = Preemergence, 500 g ai/ha, visual rating, 0 to 100 scale (0 no effect, 100 complete control)
[9] = Preemergence, 2000 g ai/ha, visual rating, 0 to 100 scale (0 no effect, 100 complete control)

Compound: CCNC(=O)c1cc(C)nc(NC(=O)c2cc(C(C)(C)C)nn2CC)c1 [Compound 149]
- Plant response rating, Velvetleaf (velvetleaf [1]; 62 g ai/ha, scale 0 to 100): 0
- Plant response rating, Velvetleaf (velvetleaf [1]; [3]): 0
- Velvetleaf plant response rating (velvetleaf [1]; [4]): 60
- Plant response rating, Soybean (soybean; 62 g ai/ha, scale 0 to 100): 0
- Plant response rating, Soybean (soybean; [3]): 0
- Soybean plant response rating (soybean; [4]): 0
- Plant response rating, Cocklebur (cocklebur; 62 g ai/ha, scale 0 to 100): 0
- Plant response rating, Cocklebur (cocklebur; [3]): 0
- Plant response rating, Cocklebur (cocklebur; [5]): 0
- Cocklebur plant response rating (cocklebur; [4]): 0
- Plant response rating, Corn (corn; 62 g ai/ha, scale 0 to 100): 0
- Plant response rating, Corn (corn; [3]): 0
- Plant response rating, Corn (corn; [5]): 10
- Corn plant response rating (corn; [4]): 10
- Plant response rating, Goosegrass (goosegrass; 62 g ai/ha, scale 0 to 100): 10
- Plant response rating, Goosegrass (goosegrass; [3]): 70
- Goosegrass plant response rating (goosegrass; [4]): 90
- Morningglory plant response rating (morningglory; [6]): 30
- Plant response rating, Morningglory (morningglory; [7]): 60
- Morningglory plant response rating (morningglory; [8]): 30
- Morningglory plant response rating (morningglory; [9]): 65
- Plant response rating, Johnsongrass (johnsongrass; 62 g ai/ha, scale 0 to 100): 10
- Plant response rating, Johnsongrass (johnsongrass; [3]): 60
- Johnsongrass plant response rating (johnsongrass; [4]): 100
- Barnyardgrass plant response rating (barnyardgrass; [6]): 45
- Plant response rating, Barnyardgrass (barnyardgrass; [7]): 65
- Barnyardgrass plant response rating (barnyardgrass; [8]): 70
- Barnyardgrass plant response rating (barnyardgrass; [9]): 90
- Velvetleaf plant response rating (velvetleaf [2]; [6]): 30
- Plant response rating, Velvetleaf (velvetleaf [2]; [7]): 40
- Velvetleaf plant response rating (velvetleaf [2]; [9]): 25
- Velvetleaf plant response rating (velvetleaf [2]; preemergence, 500 g ai/ha, visual injury, 0 to 100 scale (0 no effect, 100 complete control)): 0
- Plant response rating, Bermudagrass (bermudagrass; 62 g ai/ha, scale 0 to 100, 0 no effect, 100 complete control): 30
- Plant response rating, Bermudagrass (bermudagrass; [3]): 90
- Plant response rating, Bermudagrass (bermudagrass; [5]): 90
- Bermudagrass plant response rating (bermudagrass; [4]): 95
